# Results taken from PubChem BioAssay AID2060904 (Molecular Pharmacology Branch, DTP, NCI, 2025).
# Test system: 349418-098-R-PDC complex spheroid viability
# Test: Anticancer human tumor 349418-098-R-PDC patient-derived lung adenocarcinoma cell line growth inhibition [RAS]
# Details: for IC50: curve of first compound; for viability, T/C: stronger effect = lower value
# From the text: RAS pathway inhibitors in Combinations in Complex Spheroids
# A high-throughput screen of multi-cell type tumor spheroids was designed to identify active combinations of RAS pathway inhibitors and targeted small molecules. Complex spheroids include a stromal component modeled by human endothelial cells (HUVEC) and fibroblasts modeled by human mesenchymal stem cells (MSCs). The concentration ranges selected for each drug and investigational agent were based upon clinically achievable concentrations if the clinical Cmax of the agent was known.
# Compounds. The drugs and investigational agents: abemaciclib (NSC768073), cobimetinib (NSC768068), divarasib (GDC6063, NSC841802), docetaxel (NSC628503), GDC-1971 (RLY-1971, NSC841576), gemcitabine (NSC613327), inavolisib (NSC800729), ipatasertib (NSC767898), KB-0742 (NSC834161), MRTX-1133 (NSC836407), osimertinib (NSC779217), RMC-4630 (NSC839698), RMC-6236 (NSC851965), RMC-6291 (NSC852671), Ro-3306 (NSC812927), sapanisertib (NSC764658), SN-38 (NSC673596), staurosporine (NSC755774), SY5609 (NSC837396), and tovorafenib (DAY101, NSC766906), were obtained from the National Cancer Institute (NCI) Developmental Therapeutics Program Chemical Repository. The FDA-approved anticancer drug set is available from the NCI Developmental Therapeutics Program. […] The stock solutions were prepared in dimethyl sulfoxide (DMSO, Sigma-Aldrich, St. Louis, MO, cat. D2650) at 800-fold the tested concentration and stored at -70 degrees C prior to their use. All drugs and investigational agents were tested over a range starting from a high concentration at or near the clinical Cmax and decreasing in half-log increments. If the clinical Cmax for an agent had not been determined, the highest concentration tested was 10 microM.
# Cell Culture. All cells were maintained in an incubator at 37 degrees C and 5% CO2 with 95% humidity. The PDC lines were cultured according to standard operating procedures established by the NCI PDMR. All PDCs were thawed and cultured in Matrigel-coated flasks prepared with a working solution of 1X Ham's F-12 nutrient mix, without supplementation (Invitrogen, Waltham, MA, cat. 11765054), 100 U/mL penicillin-streptomycin (Invitrogen, cat. 15140122), and 2.5% Matrigel (Corning Inc., Corning, NY, cat. 354248) for the first three passages. The 362531-283-R-J2-PDC and 782815-120-R-J1-PDC lines were cultured in 6C/Colon 1B media, which includes advanced DMEM/F-12 (Thermo Fisher Scientific, cat. 12634028), 10 mM HEPES (Thermo Fisher Scientific, cat. 15630080), 1X GlutaMAX supplement (Thermo Fisher Scientific, cat. 35050061), 0.1 mg/mL primocin (InvivoGen, San Diego, CA, cat. ant-pm-2), 10% defined fetal bovine serum, heat inactivated (HyClone Laboratories Inc., Logan, UT, cat. SH30070.03HI), 50% L-WRN conditioned media (ATCC, cat. CRL-3276), 1.25 mM N-Acetyl-L-cysteine (Sigma-Aldrich, cat. A9165), 10 mM nicotinamide (Sigma-Aldrich, cat. N0636), 1X B-27 supplement (Thermo Fisher Scientific, cat. 17504044), 1X N-2 supplement (Thermo Fisher Scientific, cat. 17502048), 50 ng/mL human EGF (Thermo Fisher Scientific, cat. PHG0311), and 10 microM Y-27632 dihydrochloride (Tocris Bioscience, cat. 1254). The K12877-001-R-J1-PDC line was cultured in 6I media, which includes all 6C/Colon 1B media plus 10 ng/mL human FGF-10 (PeproTech, cat. 100-26), 1 ng/mL human FGF-2 (PeproTech, cat. 100-18B), 1 µM prostaglandin E2 (Tocris Bioscience, cat. 2296), […] hydrocortisone (Sigma-Aldrich, cat. H4001), and […] bovine insulin (Sigma-Aldrich, cat. I6634). The K86415-001-R-J1-PDC line was cultured in 6D media, which includes all 6C/Colon 1B media components minus the L-WRN conditioned media. The 485176-168-R4-J1-PDC was cultured in PANC media, which includes all 6C/Colon 1B media plus 100 ng/mL human FGF-10 (PeproTech, cat. 100-26), 500 nM SB-431542 (Selleckchem, cat. S1067), and 10 nM gastrin (Tocris Bioscience, cat. 3006). […]
# 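Note: spheroids exposed to compound for seven days before viability readout.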
structure (smiles),measurement,setting,value
C[C@@H](NC(=O)c1ncnc(N)c1Cl)c1ncc(C(=O)Nc2cc(C(F)(F)F)c(Cl)cn2)s1 + C#Cc1c(F)ccc2cc(O)cc(-c3ncc4c(N5CC6CCC(C5)N6)nc(OCC56CCCN5CC(F)C6)nc4c3F)c12,IC50,second compound 0.0316 µM,2440 nM
same,IC50,second compound 0.1 µM,2710 nM
same,IC50,second compound 0.316 µM,2210 nM
same,IC50,second compound 1 µM,2690 nM
same,IC50,second compound 3.16 µM,2940 nM
same,IC50,second compound 10 µM,398 nM
same,"viability, T/C","second compound 0.0316 µM, first compound 0.0316 µM",83.8%
same,"viability, T/C","second compound 0.0316 µM, first compound 0.1 µM",116%
same,"viability, T/C","second compound 0.0316 µM, first compound 0.316 µM",89%
same,"viability, T/C","second compound 0.0316 µM, first compound 1 µM",67.8%
same,"viability, T/C","second compound 0.0316 µM, first compound 3.16 µM",47.2%
same,"viability, T/C","second compound 0.0316 µM, first compound 10 µM",35.4%
same,"viability, T/C","second compound 0.1 µM, first compound 0.0316 µM",101%
same,"viability, T/C","second compound 0.1 µM, first compound 0.1 µM",118%
same,"viability, T/C","second compound 0.1 µM, first compound 0.316 µM",95.9%
same,"viability, T/C","second compound 0.1 µM, first compound 1 µM",73.2%
same,"viability, T/C","second compound 0.1 µM, first compound 3.16 µM",47.4%
same,"viability, T/C","second compound 0.1 µM, first compound 10 µM",36.6%
same,"viability, T/C","second compound 0.316 µM, first compound 0.0316 µM",110%
same,"viability, T/C","second compound 0.316 µM, first compound 0.1 µM",119%
same,"viability, T/C","second compound 0.316 µM, first compound 0.316 µM",76.4%
same,"viability, T/C","second compound 0.316 µM, first compound 1 µM",62.4%
same,"viability, T/C","second compound 0.316 µM, first compound 3.16 µM",52%
same,"viability, T/C","second compound 0.316 µM, first compound 10 µM",32.8%
same,"viability, T/C","second compound 1 µM, first compound 0.0316 µM",90.7%
same,"viability, T/C","second compound 1 µM, first compound 0.1 µM",93.8%
same,"viability, T/C","second compound 1 µM, first compound 0.316 µM",107%
same,"viability, T/C","second compound 1 µM, first compound 1 µM",76.7%
same,"viability, T/C","second compound 1 µM, first compound 3.16 µM",47.6%
same,"viability, T/C","second compound 1 µM, first compound 10 µM",34.5%
same,"viability, T/C","second compound 3.16 µM, first compound 0.0316 µM",86.6%
same,"viability, T/C","second compound 3.16 µM, first compound 0.1 µM",92.8%
same,"viability, T/C","second compound 3.16 µM, first compound 0.316 µM",87%
same,"viability, T/C","second compound 3.16 µM, first compound 1 µM",75.2%
same,"viability, T/C","second compound 3.16 µM, first compound 3.16 µM",48.5%
same,"viability, T/C","second compound 3.16 µM, first compound 10 µM",28.4%
same,"viability, T/C","second compound 10 µM, first compound 0.0316 µM",76.5%
same,"viability, T/C","second compound 10 µM, first compound 0.1 µM",61.5%
same,"viability, T/C","second compound 10 µM, first compound 0.316 µM",57.5%
same,"viability, T/C","second compound 10 µM, first compound 1 µM",33.2%
same,"viability, T/C","second compound 10 µM, first compound 3.16 µM",30.2%
same,"viability, T/C","second compound 10 µM, first compound 10 µM",8.17%
